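Assay format: 96-well plates, 48-hour exposure. GI50 = concentration required for 50% inhibition of growth.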 Activity calls are given as the source filed them. Rule as the data show it: active = GI50 up to about 1.1 µM and inactive = higher.
What was measured:
Experiment in all cases: DTP human tumour cell line panel, 48 h
CCRF-CEM = system: CCRF-CEM
NCI-H460 = system: NCI-H460
HOP-92 = system: HOP-92
NCI/ADR-RES = system: NCI/ADR-RES
OVCAR-3 = system: OVCAR-3
SK-OV-3 = system: SK-OV-3
K562 = system: K562
SK-MEL-28 = system: SK-MEL-28
OVCAR-8 = system: OVCAR-8
SF-539 = system: SF-539
HOP-62 = system: HOP-62
T47D = system: T47D
SF-268 = system: SF-268
BT-549 = system: BT-549
HCT-15 = system: HCT-15
SN12C = system: SN12C
M14 = system: M14
HT-29 = system: HT-29
RXF 393 = system: RXF 393
MDA-N = system: MDA-N

Structure (SMILES) | GI50 (CCRF-CEM) | GI50 (NCI-H460) | GI50 (HOP-92) | GI50 (NCI/ADR-RES) | GI50 (OVCAR-3) | GI50 (SK-OV-3) | GI50 (K562) | GI50 (SK-MEL-28) | GI50 (OVCAR-8) | GI50 (SF-539) | GI50 (HOP-62) | GI50 (T47D) | GI50 (SF-268) | GI50 (BT-549) | GI50 (HCT-15) | GI50 (SN12C) | GI50 (M14) | GI50 (HT-29) | GI50 (RXF 393) | GI50 (MDA-N)
CN(C)CCn1c(=O)c2ccc3c4c(nn3CCN(C)C)c3ccccc3n(c1=O)c24 | 178 nM (active) | < 122 nM (active) | 1870 nM (inactive) | 368 nM (active) | 431 nM (active) | 412 nM (active) | 146 nM (active) | 1850 nM (inactive) | < 10 nM (active) | 571 nM (active) | 164 nM (active) | 524 nM (active) | 211 nM (active) | 1840 nM (inactive) | < 125 nM | 148 nM (active) | 411 nM (active) | < 123 nM (active) | 275 nM (active) | 248 nM (active)
CCSC1=CC(=O)c2nc3ccccc3c3ccnc1c23 | 2440 nM (inactive) | 6240 nM (inactive) | 11400 nM (inactive) | 2620 nM (inactive) | 2560 nM (inactive) | 49000 nM (inactive) | 1350 nM (inactive) | 10100 nM (inactive) | 2570 nM (inactive) | 5430 nM (inactive) | 18400 nM (inactive) | 11200 nM (inactive) | 2490 nM (inactive) | 12900 nM (inactive) | 2310 nM | 2640 nM (inactive) | 2380 nM (inactive) | 3820 nM (inactive) | 4500 nM (inactive) | 1950 nM (inactive)
C=C1C(=O)O[C@@H]2C[C@@]3(C)CCC[C@H](C)C3=C[C@H]12 [HELENINE] | 1520 nM (inactive) | 17000 nM (inactive) | 2430 nM (inactive) | 7740 nM (inactive) | 6890 nM (inactive) | 22000 nM (inactive) | 3020 nM (inactive) | 8000 nM (inactive) | 6190 nM (inactive) | 10600 nM (inactive) | 12300 nM (inactive) | 2640 nM (inactive) | 12600 nM (inactive) | 3620 nM (inactive) | 4300 nM | 3010 nM (inactive) | 3080 nM (inactive) | 4290 nM (inactive) | 6120 nM (inactive) | 4660 nM (inactive)

From ChEMBL document CHEMBL1201862, “PubChem BioAssay data set” (2004)
